Experiment [1] concerns the target T1, Mu-type opioid receptor (Cavia porcellus, UniProt P97266). Description: Binding affinity for mu opioid receptor by displacing DAMGO was determined in [35S]-GTP gamma-S binding assay; Inactive. The format is functional. For orientation: GTPγS is a poorly hydrolysed GTP analogue; its binding reports G protein activation.
The target of experiment [2] is Mu-type opioid receptor (Homo sapiens) (UniProt P35372). Description: Selectivity determined for mu opioid receptor to that of delta opioid receptor.
Mu-type opioid receptor (Homo sapiens), sequence (P35372 whole entry): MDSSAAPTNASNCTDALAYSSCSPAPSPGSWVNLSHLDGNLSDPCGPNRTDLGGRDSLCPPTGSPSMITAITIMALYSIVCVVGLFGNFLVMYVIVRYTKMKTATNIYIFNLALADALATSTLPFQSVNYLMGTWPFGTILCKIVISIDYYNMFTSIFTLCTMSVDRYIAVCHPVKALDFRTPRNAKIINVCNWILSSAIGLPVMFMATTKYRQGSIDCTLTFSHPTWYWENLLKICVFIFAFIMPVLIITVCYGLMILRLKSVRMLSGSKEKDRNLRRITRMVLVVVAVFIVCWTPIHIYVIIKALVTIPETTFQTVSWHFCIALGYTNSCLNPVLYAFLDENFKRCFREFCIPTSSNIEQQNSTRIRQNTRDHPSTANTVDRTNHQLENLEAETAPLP
Experiment [3] deals with T2, Kappa-type opioid receptor (Cavia porcellus, UniProt P41144). Description: Binding affinity for kappa opioid receptor by displacing U-69,593 was determined in [35S]-GTP gamma-S binding assay; Inactive. The format is functional.
T2 sequence (P41144 whole entry): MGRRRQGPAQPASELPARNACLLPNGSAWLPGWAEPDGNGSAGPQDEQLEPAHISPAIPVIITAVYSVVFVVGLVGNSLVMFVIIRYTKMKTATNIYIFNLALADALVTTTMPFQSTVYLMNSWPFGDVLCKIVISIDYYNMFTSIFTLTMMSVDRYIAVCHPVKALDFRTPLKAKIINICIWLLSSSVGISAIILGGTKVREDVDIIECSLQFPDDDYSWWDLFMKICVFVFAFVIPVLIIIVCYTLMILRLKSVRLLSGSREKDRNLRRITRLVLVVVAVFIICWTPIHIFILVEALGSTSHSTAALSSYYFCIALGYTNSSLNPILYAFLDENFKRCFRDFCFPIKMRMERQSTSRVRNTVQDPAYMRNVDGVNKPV
The target in experiment [4] is Mu-type opioid receptor (Homo sapiens) (UniProt P35372). Description: Selectivity for mu to that of delta opioid receptor was determined in [35S]-GTP gamma-S binding assay.
Experiment [5] concerns the target T1, Mu-type opioid receptor. Description: Binding affinity for mu opioid receptor by displacing DAMGO was determined in [35S]GTP gamma-S binding assay. The format is functional.
The target of experiment [6] is T2, Kappa-type opioid receptor. Description: Binding affinity for kappa opioid receptor by displacing U-69,593 was determined in [35S]GTP gamma-S binding assay. Format: functional.

Our source for the Ki and Ratio values is ChEMBL document CHEMBL1135961, “Synthesis and biological activity of 8beta-substituted hydrocodone indole and hydromorphone indole derivatives” (Bioorg Med Chem Lett, 2002).

pKi: −log10 of the molar value. A value given as a limit tells only on which side of the number the result lay.

T1 sequence (P97266 whole entry): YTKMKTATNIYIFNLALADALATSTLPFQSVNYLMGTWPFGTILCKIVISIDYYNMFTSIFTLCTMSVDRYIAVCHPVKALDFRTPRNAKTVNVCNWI

`COc1ccc2c3c1O[C@H]1c4[nH]c5ccccc5c4CC4C(C2)N(C)CCC341` (some centres not stated): the pKi in experiment [1] was below 6.22; in experiment [3], below 6.46. Further, the Ratio in experiment [2] is above 53.
`CN1CC[C@]23c4c5ccc(O)c4O[C@H]2c2[nH]c4ccccc4c2C[C@H]3[C@H]1C5`: the Ratio is 14 in experiment [4] and 296 in experiment [2]. Also, the pKi was 6.69 in experiment [5] and 6.14 in experiment [6].
Take `COc1ccc2c3c1O[C@H]1c4[nH]c5ccccc5c4[C@H](C)C4C(C2)N(C)CCC341` (some centres not stated): the results for the pKi in experiment [1] and in experiment [3] were below 6.22 and below 6.46, respectively. Moreover, the Ratio in experiment [2] was above 177.
With `C[C@H]1c2c([nH]c3ccccc23)[C@@H]2Oc3c(O)ccc4c3C23CCN(C)C(C4)C13` (some centres not stated), the values for the pKi in experiment [1] and in experiment [6] were below 6.22 and 6.40, respectively. Moreover, in experiment [2], the Ratio was 322.
Take `CCCC[C@H]1c2c([nH]c3ccccc23)[C@@H]2Oc3c(O)ccc4c3C23CCN(C)C(C4)C13` (some centres not stated): the Ratio is 12 in experiment [4] and 50 in experiment [2]. The pKi is 6.25 in experiment [5] and 6.57 in experiment [6].
For `C=CC(C)N1CCC23c4c5ccc(O)c4O[C@H]2c2[nH]c4ccccc4c2[C@H](C)C3C1C5` (some centres not stated), the Ratio in experiment [2] stood at 120.
For `CCCC[C@H]1c2c([nH]c3ccccc23)[C@@H]2Oc3c(OC)ccc4c3C23CCN(C)C(C4)C13` (some centres not stated), the results for the pKi in experiment [1] and in experiment [3] were below 6.22 and below 6.46, respectively. For the same compound, the Ratio in experiment [2] was above 12.
For the compound `C[C@H]1c2c([nH]c3ccccc23)[C@@H]2Oc3c(O)ccc4c3C23CCN(CC2CC2)C(C4)C13` (some centres not stated), the Ratio in experiment [2] is 29.

As usually defined, the pKi is the negative decadic logarithm of the Ki, by convention in mol/L.
